Holding throughout (assay): relative viability (nuclei count vs DMSO), 5 days (fraction); higher = more cells survive
Compound in assay [1]: CN1CCN(CC1)C2=CC(=C(C=C2)NC3=NC=C4C(=N3)N(C5=CC=CC=C5C(=O)N4C)C)OC [XMD8-85] + Nc1ncn([C@H]2C[C@H](O)[C@@H](CO)O2)c(=O)n1 [Decitabine] (partner 2 µM)
Put shortly:
(§1)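 Relative viability divides the nuclei count in treated wells by that in vehicle wells. Lung cancer cell lines were seeded in 1536-well plates, dosed by pin tool the next day, and fixed and stained after 5 days in one step with final 0.05% Triton X-100, 1% formaldehyde and 1 ug/ml Hoechst. Dosing was a single drug or a fixed anchor-drug dose plus five library-drug doses (not always all listed) in √10 steps, and values are medians of duplicate plates imaged at 4×.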

Compound in assay [2]: CN1CCN(CC1)C2=CC(=C(C=C2)NC3=NC=C4C(=N3)N(C5=CC=CC=C5C(=O)N4C)C)OC [XMD8-85] + C[C@]1(O)C[C@@H](c2nc(-c3ccc4ccc(-c5ccccc5)nc4c3)c3c(N)nccn32)C1 [Linsitinib] (partner 1 µM)
Put shortly: as §1

Compound in assay [3]: O=C(O)C(Cc1ccccc1[N+](=O)[O-])=NNc1nc(-c2ccc(Cl)c(Cl)c2)cs1 (mixture of isomers) [4EGI-1] + CS(=O)(=O)CCNCc1ccc(-c2ccc3ncnc(Nc4ccc(OCc5cccc(F)c5)c(Cl)c4)c3c2)o1 [Lapatinib] (partner 2 µM)
Put shortly: as §1

Compound in assay [4]: CN1CCN(CC1)C2=CC(=C(C=C2)NC3=NC=C4C(=N3)N(C5=CC=CC=C5C(=O)N4C)C)OC [XMD8-85] + NC(=O)Nc1cc(-c2cccc(F)c2)sc1C(=O)N[C@H]1CCCNC1 [AZD7762] (partner 0.2 µM)
Put shortly:
as §1

Compound in assay [5]: CN1CCN(CC1)C2=CC(=C(C=C2)NC3=NC=C4C(=N3)N(C5=CC=CC=C5C(=O)N4C)C)OC [XMD8-85] + N=C(N)NC(=N)NCCc1ccccc1 [Phenformin] (partner 250 µM)
Put shortly: as §1

As to NCI-H1792, the relative viability turned out to be 0.468 in assay [1] (first compound 0.253 µM); 0.525 in assay [1] (first compound 0.8 µM); 0.504 in assay [1] (first compound 2.53 µM); 0.361 in assay [1] (first compound 8 µM); 0.47 in assay [2] (first compound 0.08 µM); 0.521 in assay [2] (first compound 0.253 µM). Also, the relative viability in assay [2] (first compound 2.53 µM) was 0.463; in assay [2] (first compound 8 µM) it was 0.556; in assay [3] (first compound 0.5 µM), 0.84; in assay [3] (first compound 1.581 µM) it was 0.864; in assay [3] (first compound 5 µM), 0.899; in assay [3] (first compound 15.81 µM), 0.816. Besides, the relative viability in assay [3] (first compound 50 µM) worked out at 0.557; in assay [4] (first compound 0.8 µM) it was 0.647; in assay [4] (first compound 2.53 µM), 0.694; in assay [4] (first compound 8 µM), 0.574; in assay [5] (first compound 0.253 µM), 0.268; in assay [5] (first compound 2.53 µM) it was 0.257. The relative viability in assay [5] (first compound 8 µM) was 0.486.

The record behind these values is the supplement of paper PMC10307832.
